IC50 data for 50 compounds are collected here from patent US8304447B2, “2-acylaminopropoanol-type glucosylceramide synthase inhibitors” (Genzyme Corporation, priority 2007, dated 2012).

The subject of the first experiment is GM3. Briefly: GM3 Elisa assay. The format is cell-based. Particulars: 48 h, Table 1; B16-FO cells, 2 days incubation; read-out: IC50_uM_Mean. As for the experimental part: B16-FO cells from ATCC (American Tissue Culture Collection) were grown in DMEM media (ATCC) with 10% Fetal Bovine Serum (Hyclone) and Pen/Step/Glutamine (Biowhittaker). 4000 cells per well were plated on collagen coated plates (BD) and allowed to attach for 6 hours in an incubator (37 degrees, 5% CO2). After 6 hours the compounds and controls were added to the wells, the plates mixed and returned to the incubator for 2 days. Day of assay the cells were fixed for 20 minutes with 1% formaldehyde and then washed with Tris Buffered Saline (TBS) 3 times, 150 μl of TBS was left in the wells and 50 μl of goat serum (Invitrogen) was added, the plates mixed and incubated for 1 hour at room temperature. The plates were flicked and the cells incubated with the monoclonal Antibody to GM3 (NeuAc) (Cosmo) for 45 minutes as room temperature. The plates were then washed 3 times with TBS, leaving 150 μl of TBS in the wells and Peroxidase AffinPure F (ab′) 2 frag Gt Anti-mouse IgM, μ Chain Specific (Jackson Immuno Research) was added in 50 μl, the plates mixed and incubated for 45 minutes at room temperature. The plates were washed 3 times with TBS, flicked and blotted and 100 μl of Quantablu (Pierce) was added to the wells and incubated for 1 hour then read on a Fluorometer at Ex 325 and Em 420. The data was then analyzed using standard programs.
On to `CCCCCCCCCCCCNC(=O)N[C@H](CN1CCCC1)[C@H](O)c1ccc2c(c1)OCCO2` [Compound 7, 1-((1R,2R)-1-(2,3-dihydrobenzo[β][1,4]dioxin-6-yl)-1-hydroxy-3-(pyrrolidin-1-yl)propan-2-yl)-3-dodecylurea], for which the IC50 was ≤ 100 nM. Still for that read-out and setting: then `COc1ccc(C(=O)CCCCCC(=O)N[C@H](CN2CCCC2)[C@H](O)c2ccc3c(c2)OCCO3)cc1` [Compound 156, N-((1R,2R)-1-(2,3-dihydrobenzo[β][1,4]dioxin-6-yl)-1-hydroxy-3-(pyrrolidin-1-yl)propan-2-yl)-7-(4-methoxyphenyl)-7-oxoheptanamide], with ≤ 100 nM. The same measure, in the same setting: the figure for `O=C(CCCc1nc2ccccc2s1)NC(CN1CCCC1)[C@H](O)c1ccc2c(c1)OCCO2` (stereo partly drawn) [Compound 101, 4-(benzo[d]thiazol-2-yl)-N-((1R,2R)-1-(2,3-dihydrobenzo[β][1,4]dioxin-6-yl)-1-hydroxy-3-(pyrrolidin-1-yl)propan-2-yl)butanamide] is ≤ 100 nM; for `O=C(Nc1ccc2ccccc2c1)N[C@H](CN1CCCC1)[C@H](O)c1ccc2c(c1)OCCO2` [Compound 69, 1-((1R,2R)-1-(2,3-dihydrobenzo[β][1,4]dioxin-6-yl)-1-hydroxy-3-(pyrrolidin-1-yl)propan-2-yl)-3-(naphthalen-2-yl)urea] it is 100 to 1000 nM; for `O=C(CSc1ccccc1)N[C@H](CN1CCCC1)[C@H](O)c1ccc2c(c1)OCCO2` [Compound 11, N-((1R,2R)-1-(2,3-dihydrobenzo[β][1,4]dioxin-6-yl)-1-hydroxy-3-(pyrrolidin-1-yl)propan-2-yl)-2-(phenylthio)acetamide] it is ≤ 100 nM.

Still in this experiment, the particulars now being: 48 h, Table 2; B16-FO cells, 2 days incubation; read-out: IC50_uM_Mean.
As to `COc1ccc([C@@H](O)[C@@H](CN2CCCC2)NC(=O)CCCCCC(C)=O)cc1` [Compound 279], the IC50 lay within 1000 to 3000 nM. Same read-out and setting: then `COc1ccc(CCC(=O)N[C@H](CN2CCCC2CN2CCCC2)[C@H](O)c2ccc3c(c2)OCCO3)cc1Cl` (some centres unmarked) [Compound 245], with 3000 to 10000 nM.

Turning to `COc1ccc([C@@H](O)[C@@H](CN2CCCC2)NC(=O)CCCC(=O)c2ccc(OC(C)C)cc2)cc1` [Compound 270, 5-(4-Isopropoxy-phenyl)-5-oxo-pentanoic acid [2-hydroxy-2-(4-methoxy-phenyl)-1-pyrrolidin-1-ylmethyl-ethyl]amide], the IC50 is ≤ 100 nM.

`CCCCCCCC(=O)N[C@H](CN1CCCC1)[C@H](OC)c1ccc2c(c1)OCCO2` [Compound 315]: the IC50 is 100 to 1000 nM. For the compound `Cc1ccc(C(=O)CCCC(=O)N[C@H](CN2CCCC2)[C@H](O)c2ccc3c(c2)OCCO3)cc1` [Compound 283, N-((1R,2R)-1-(2,3-dihydrobenzo[b][1,4]dioxin-6-yl)-1-hydroxy-3-(pyrrolidin-1-yl)propan-2-yl)-5-oxo-5-p-tolylpentanamide], the IC50 was ≤ 100 nM.

The same experiment, now with this note: Table 2; B16-FO cells, 2 days incubation; read-out: IC50_uM_Mean.
Consider `COc1ccc([C@@H](O)[C@@H](CN2CCCC2)NC(=O)OCc2ccccc2)cc1` [Compound 289, benzyl (1R,2R)-1-hydroxy-1-(4-methoxyphenyl)-3-(pyrrolidin-1-yl)propan-2-ylcarbamate], for which the IC50 fell in the range of 100 to 1000 nM.

The same experiment, now with this note: Table 3 (IC 50 Values); B16-FO cells; read-out: IC50_uM_Mean.
Consider `COC[C@@H]1CCCN1C[C@@H](NC(=O)CCCCCC(=O)c1ccc(OC)cc1)[C@@H](O)c1ccc2c(c1)OCCO2` [Compound 533], for which the IC50 was 100 to 1000 nM. The same measure, in the same setting: the figure for `COc1ccc(C(=O)CCCCCC(=O)N[C@H](CN2CCCC2)[C@H](O)c2ccc(-c3ccccc3)cc2)cc1` [Compound 693] is ≤ 100 nM; for `COc1ccc(OCCC(=O)N(Cc2ccccn2)[C@H](CN2CCCC2)[C@H](O)c2ccc(O)cc2)cc1` [Compound 716] it is 3000 to 10000 nM; for `CCCCOc1ccc(CC(CN2CCCC2)NC(=O)CCCCC(=O)c2ccc(OC)cc2)cc1` (centres unmarked) [Compound 589] it is 1000 to 3000 nM. The same measure, in the same setting: then `O=C(CCCCOC1CCOCC1)N[C@H](CN1CCCC1)[C@H](O)c1ccc2c(c1)OCCO2` [Compound 554], with 3000 to 10000 nM; and `COc1ccc(C(=O)CCCCC(=O)N[C@H](CN2CCCC2)[C@H](O)c2ccc(OC[C@H](C)CO)cc2)cc1` [Compound 439], with 100 to 1000 nM.

With `COc1ccc(OCCC(=O)N[C@H](CN2CCC[C@@H]2C)[C@@H](O)c2ccc3c(c2)OCCO3)cc1` [Compound 526], the IC50 lay within 100 to 1000 nM. Still for that read-out and setting: then `COc1ccc(OCCC(=O)N[C@H](CN2CCCC2)[C@H](O)c2ccccc2OC)cc1` [Compound 700], with 100 to 1000 nM. `COc1ccc(C(=O)CCCCCC(=O)N[C@@H](CO)C(O)c2ccc3c(c2)OCCO3)cc1` (some centres unmarked) [Compound 477]: the IC50 is 3000 to 10000 nM. The same measure, in the same setting: the figure for `COc1ccc(OCCC(=O)N[C@H](CN2CCC[C@H]2C(F)(F)F)[C@H](O)c2ccc3c(c2)OCCO3)cc1` [Compound 542] is 3000 to 10000 nM; for `COc1ccc(OCCC(=O)N[C@H](CN2CCCC(C)C2)[C@H](O)c2ccc3c(c2)OCCO3)cc1` (some centres unmarked) [Compound 608] it is 3000 to 10000 nM.

`CCCCOc1ccc([C@@H](O)[C@@H](CN2CC[C@@H](F)C2)NC(=O)CCCCC(=O)C2CCCCC2)cc1` [Compound 585]: the IC50 lay within 100 to 1000 nM. The same measure, in the same setting: then `O=C(N[C@H](CN1CCCC1)[C@H](O)c1ccc2c(c1)OCCO2)C1(C(F)(F)F)CCC1` [Compound 614], with 3000 to 10000 nM; and `COc1ccc(C(=O)CCCCCC(=O)N[C@H](CNC(C)C)C(O)c2ccc3c(c2)OCCO3)cc1` (some centres unmarked) [Compound 465], with 100 to 1000 nM. The same measure, in the same setting: the figure for `COc1ccc(OCCC(=O)N[C@H](CN2CCCC2)[C@H](O)c2ccc(OC)c(F)c2)cc1` [Compound 341] is ≤ 100 nM; for `CCCCCCCC(=O)N[C@H](CN1CCCC1)[C@H](O)c1ccc(OC)c(C)c1` [Compound 388] it is ≤ 100 nM. Still for that read-out and setting: the figure for `COc1ccc(C(=O)CCCCC(=O)N[C@H](CN2CCCC2)[C@H](O)c2ccc(OCCOc3ccccc3)cc2)cc1` [Compound 418] is ≤ 100 nM; for `COc1ccc(C(=O)CCCC(=O)N[C@H](CN2CCCC2)[C@H](O)c2ccc(OC)c(F)c2)cc1` [Compound 343] it is 100 to 1000 nM. On to `CCCCCCCC(=O)N[C@H](CN1CCCC1)[C@H](O)c1ccc2c(c1)OC(F)(F)O2` [Compound 411], for which the IC50 lay in the range of 3000 to 10000 nM.

With `Cc1noc(CCCCC(=O)NC(CN2CCCC2)C(O)c2ccc3c(c2)OCCO3)n1` (centres unmarked) [Compound 652], the IC50 is 3000 to 10000 nM. On the same count and under the same terms, then `CCC(C)NC[C@@H](NC(=O)CCCCCC(=O)c1ccc(OC)cc1)C(O)c1ccc2c(c1)OCCO2` (some centres unmarked) [Compound 461], with 100 to 1000 nM; and `O=C(CCCCCOCC(F)(F)F)N[C@H](CN1CCCC1)[C@H](O)c1ccc2c(c1)OCCO2` [Compound 620], with 100 to 1000 nM; and `O=C(CCCCCS(=O)(=O)C1CCCCC1)N[C@H](CN1CCCC1)[C@H](O)c1ccc2c(c1)OCCO2` [Compound 562], with 100 to 1000 nM.

Regarding `COc1ccc(OCCCC(=O)N[C@H](CN2CC[C@@H](F)C2)[C@H](O)c2ccc(OCCCCF)cc2)cc1` [Compound 734], the IC50 is ≤ 100 nM. For the compound `Cc1nccn1C[C@@H](NC(=O)CCCCCC(=O)c1ccc(F)cc1)C(O)c1ccc2c(c1)OCCO2` (some centres unmarked) [Compound 569], the IC50 is 3000 to 10000 nM.

Consider `COc1ccc(OCCC(=O)N[C@H](CN2CCCC2)[C@@H](O)c2ccc3c(c2)OCCO3)cc1` [Compound 676], for which the IC50 fell in the range of 3000 to 10000 nM.

For `CCCCCCCC(=O)N[C@H](CN1CC[C@H](F)C1)[C@H](O)c1ccc2c(c1)OCCO2` [Compound 510], the IC50 was 3000 to 10000 nM. For `COc1ccc(C(=O)CCCCCC(=O)N[C@H](CN2CCC[C@H]2C)[C@@H](O)c2ccc3c(c2)OCCO3)cc1` [Compound 529], the IC50 was ≤ 100 nM.

For the compound `CCCCCCCC(=O)N[C@H](CN1CCCC1)[C@H](O)c1ccc(OC(F)(F)F)cc1` [Compound 667], the IC50 was 100 to 1000 nM.

On to `COc1ccc(C(=O)CCCCC(=O)N[C@H](CN2CCCC2)[C@H](O)c2ccc(OCCCOc3ccc(F)cc3)cc2)cc1` [Compound 431], for which the IC50 is ≤ 100 nM. Still for that read-out and setting: then `COc1ccc(C(=O)CCCCCC(=O)N[C@H](CN2CCC2)[C@H](O)c2ccc3c(c2)OCCO3)cc1` [Compound 603], with 100 to 1000 nM; and `Cc1nccn1C[C@@H](NC(=O)CCCOc1ccc(F)cc1)[C@H](O)c1ccc2c(c1)OCCO2` [Compound 570], with 3000 to 10000 nM; and `COc1ccc(C(=O)CCCCCC(=O)N[C@H](CN2CCCC2)[C@H](O)c2ccc3c(c2)OC(F)(F)C(F)(F)O3)cc1` [Compound 401], with 100 to 1000 nM. In the case of `COc1ccc(OCCCC(=O)N[C@H](CN2CC[C@H](O)C2)[C@H](O)c2ccc(OC(C)C)cc2)cc1` [Compound 733], the IC50 is ≤ 100 nM.

On to `CCCCCCCCCCCCCCCC(=O)N[C@H](CNC(C)C)[C@H](O)c1ccc2c(c1)OCCO2` [Compound 680], for which the IC50 was ≤ 100 nM.

For `COc1ccc(C(=O)CCCCC(=O)N[C@H](CN2CC[C@H](O)C2)[C@H](O)c2ccc(OC(C)C)cc2)cc1` [Compound 375], the IC50 lay in the range of 100 to 1000 nM. Consider `COc1ccc(C(=O)CCCCCC(=O)N[C@H](CN2CCCC2)[C@H](O)c2ccc(C)c(F)c2)cc1` [Compound 350], for which the IC50 was ≤ 100 nM.

On to `O=C(CCCC#CC1(O)CCCCC1)N[C@H](CN1CCCC1)[C@H](O)c1ccc2c(c1)OCCO2` [Compound 631], for which the IC50 was in the range of 3000 to 10000 nM. Still for that read-out and setting: then `COc1ccc(OCCC(=O)N[C@H](CN2CCCC2)[C@H](O)c2ccc3c(c2)OC(F)(F)O3)cc1` [Compound 407], with 1000 to 3000 nM.
